In US8232308B2, “Methods for treating a disease in which Rho kinase is involved” (UBE Industries, Ltd., priority 2003, dated 2012):
Where a name gives a salt, the structure may show the parent alone.

Biological target: T1, activated ROCK II (Rattus norvegicus, UniProt Q62868)
T1 construct: purchased Upstate Biotechnology 14-338
Assay: Test for Evaluation of Inhibiting Activity to Rho Kinase
Format: biochemical
Conditions: S6 Kinase Substrate Peptide, [γ-32P]ATP, 30° C. for 15 minutes, Ki=IC50/(1+S/Km)
Experimental: In order to find the utility of the present invention compound, a Rho kinase inhibiting activity of the present invention compound was evaluated. The details thereof will be illustrated under the item of “Pharmacological Test (Test for Evaluation of Rho Kinase Inhibiting Activity)” in the Examples which will be mentioned later. The evaluation of the Rho kinase inhibiting activity of the present invention compound was carried out in accordance with the methods mentioned in J. Biol. Chem., 274, 32418 (1999) by Kaibuchi, et al. and mentioned in the instruction manual for use attached to the commercially available activated ROCK II [Upstate Biotechnology, Catalog No. 14-338 (5 units/50 μl)].
A. Test for Evaluation of Inhibiting Activity to Rho Kinase
In order to test the usefulness of the compounds of the present invention as a Rho kinase inhibitor, inhibiting activities of the compounds of the present invention to Rho kinase were evaluated and investigated in accordance with the methods of Kaibuchi, et al. mentioned in J. Biol. Chem., 274, 32418, 1999 and also with the methods mentioned in the instruction manual for use attached to commercially available activated ROCK II [Upstate Biotechnology, Catalog No. 14-338, (5 unite/50 μl)]. With regard to the test compounds, the compounds 5-1 to 5-73 (except the compounds 5-2, 5-9, 5-18, 5-37 and 5-38) were used.
A buffer was prepared so as to make tris(hydroxymethyl)aminomethane (Tris) (pH 7.5), 50 mM, ethyleneglycol bis(β-aminoethyl ether)-N,N,N′,N′-tetraacetic acid (EGTA), 2 mM, ethylenediaminetetraacetic acid (EDTA), 1 mM, magnesium chloride (MgCl2) 5 mM, β-glycerol phosphate, 5 mM, and dithiothreitol (DTT), 2 mM, by mixing them.
A mixed liquid of a 10 mM ATP solution with a commercially available [γ-^32P]ATP solution [NEN, Code No. NEG-002A] was diluted with the buffer to prepare a 300 μM ATP [γ-^32P]ATP solution.
A Commercially Available Activated ROCK II [Upstate Biotechnology, Catalog No. 14-338, (5 Units/50 μl)] was diluted to a concentration of 1/100 with the buffer to prepare an activated ROCK II solution.
A S6 Kinase Substrate Peptide [Upstate Biotechnology, Catalog No. 12-124,] (2 mg) was dissolved in distilled water to prepare a 1 mM substrate solution.
A test compound was dissolved in 10% aqueous dimethyl sulfoxide solution.
1) The test compound solution is placed in a microtube.
2) The 300 μM ATP [γ-^32P]ATP solution is added to the microtube followed by cooling to 4° C.
3) After that, a permanently activated ROCK II solution, 1 mM substrate solution and buffer are added to each microtube in that order, and the whole is mixed and cooled again at 4° C.
4) The microtube is placed in an incubator (30° C.) and the mixture is subjected to reaction for 15 minutes.
5) After cooling to 4° C., a 250 mM phosphoric acid solution (5 μl) is added to each microtube to stop the reaction.
6) The reaction solution (30 μl) is taken out from each microtube and spotted on a filter paper (Whatman P81) so that the reaction product (phosphorylated substrate) is adsorbed to the filter paper.
7) The filter paper is transferred to a beaker in which a 75 mM phosphoric acid solution is placed and shaken for 5 minutes so that unreacted [γ-^32P]AfP is washed out. The washing operation as such is carried out four times.
8) After that, the filter paper is dipped in ethanol to dehydrate and energy amount (radioactivity) of the reaction product adsorbed to the filter paper is measured with a liquid scintillation counter.
The IC50 value was calculated by an XL-fit (IDBS).
The Ki value is calculated by the following formula. S is an ATP concentration contained in the reaction solution while Km is a Michaelis-Menten constant. Ki=IC50/(1+S/Km)

T1 sequence (Q62868 11-550 limits assumed): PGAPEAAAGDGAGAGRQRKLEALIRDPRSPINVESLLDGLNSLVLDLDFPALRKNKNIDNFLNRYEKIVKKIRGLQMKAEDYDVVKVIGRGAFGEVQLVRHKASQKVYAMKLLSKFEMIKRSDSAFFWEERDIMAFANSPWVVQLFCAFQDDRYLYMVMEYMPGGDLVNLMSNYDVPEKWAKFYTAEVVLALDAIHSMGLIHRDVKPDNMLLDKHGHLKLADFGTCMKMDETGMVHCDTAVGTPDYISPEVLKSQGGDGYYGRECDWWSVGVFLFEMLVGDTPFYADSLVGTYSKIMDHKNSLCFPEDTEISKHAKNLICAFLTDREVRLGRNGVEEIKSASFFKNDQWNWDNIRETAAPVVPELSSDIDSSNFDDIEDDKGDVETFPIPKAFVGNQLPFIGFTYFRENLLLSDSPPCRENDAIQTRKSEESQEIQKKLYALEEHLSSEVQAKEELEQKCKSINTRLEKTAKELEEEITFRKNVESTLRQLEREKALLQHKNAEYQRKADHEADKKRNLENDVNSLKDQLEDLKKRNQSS

Ki [nM]	SMILES
12	CC(C)(N)c1ccc(-c2ccc3[nH]ncc3c2-n2cccc2)cc1 [Compound 5-39, 5-[4-(1-Amino-1-methylethyl)phenyl]-4-(pyrrol-1-yl)-1H-indazole dihydrochloride]
33	CC(C)Oc1c(-c2ccc(C(C)(C)N)cc2)ccc2[nH]ncc12 [Compound 5-40, 5-[4-(1-Amino-1-methylethyl)phenyl]-4-isopropoxy-1H-indazole dihydrochloride]
14	CC(C)(N)c1ccc(-c2ccc3[nH]ncc3c2N2CCCCC2)cc1 [Compound 5-41, 5-[4-(1-Amino-1-methylethyl)phenyl]-4-(piperidin-1-yl)-1H-indazole trihydrochloride]
14	CC(C)(N)c1ccc(-c2ccc3[nH]ncc3c2N2CCCC2)cc1 [Compound 5-42, 5-[4-(1-Amino-1-methylethyl)phenyl]-4-(pyrrolidin-1-yl)-1H-indazole trihydrochloride]
211	CC(C)(N)c1ccc(-c2ccc3[nH]ncc3c2N2CCOCC2)cc1 [Compound 5-43, 5-[4-(1-Amino-1-methylethyl)phenyl]-4-(morpholin-4-yl)-1H-indazole trihydrochloride]
13	COc1c(-c2ccc(C(C)(C)N)cc2)ccc2[nH]ncc12 [Compound 5-44, 5-[4-(1-Amino-1-methylethyl)phenyl]-4-methoxy-1H-indazole dihydrochloride]
27	COc1c(-c2ccc(C(C)(C)N)cn2)ccc2[nH]ncc12 [Compound 5-45, 5-[5-(1-Amino-1-methylethyl)pyridin-2-yl]-4-methoxy-1H-indazole trihydrochloride]
27	COc1c(-c2ccc(C3(N)CCCC3)cn2)ccc2[nH]ncc12 [Compound 5-46, 5-[5-(1-Aminocyclopentyl)pyridin-2-yl]-4-methoxy-1H-indazole trihydrochloride]
45	CCOc1c(-c2ccc(C(C)(C)N)cn2)ccc2[nH]ncc12 [Compound 5-47, 5-[5-(1-Amino-1-methylethyl)pyridin-2-yl]-4-ethoxy-1H-indazole trihydrochloride]
29	CC(C)(N)c1ccc(-c2ccc3[nH]ncc3c2O)cc1 [Compound 5-48, 5-[4-(1-Amino-1-methylethyl)phenyl]-4-hydroxy-1H-indazole dihydrochloride]
17	CCOc1c(-c2ccc(C(C)(C)N)cc2)ccc2[nH]ncc12 [Compound 5-49, 5-[4-(1-Amino-1-methylethyl)phenyl]-4-ethoxy-1H-indazole dihydrochloride]
84	CC(C)Oc1c(-c2ccc(C(C)(C)N)cn2)ccc2[nH]ncc12 [Compound 5-50, 5-[5-(1-Amino-1-methylethyl)pyridin-2-yl]-4-isopropoxy-1H-indazole trihydrochloride]
38	CCC(N)(CC)c1ccc(-c2ccc3[nH]ncc3c2OC)nc1 [Compound 5-51, 5-[5-(1-Amino-1-ethylpropyl)pyridin-2-yl]-4-methoxy-1H-indazole trihydrochloride]
14	CCCOc1c(-c2ccc(C(C)(C)N)cc2)ccc2[nH]ncc12 [Compound 5-52, 5-[4-(1-Amino-1-methylethyl)phenyl]-4-n-propoxy-1H-indazole dihydrochloride]
3.6	CC(C)(N)c1ccc(-c2ccc3[nH]ncc3c2OC(F)F)cc1 [Compound 5-53, 5-[4-(1-Amino-1-methylethyl)phenyl]-4-difluoro-methoxy-1H-indazole dihydrochloride]
31	CC(C)(N)c1ccc(-c2ccc3[nH]ncc3c2OCC(F)(F)F)cc1 [Compound 5-54, 5-[4-(1-Amino-1-methylethyl)phenyl]-4-(2,2,2-tri-fluoroethoxy)-1H-indazole dihydrochloride]

Ki [nM]	SMILES
26	CC(C)(N)c1ccc(-c2ccc3[nH]ncc3c2OCCF)cc1 [Compound 5-56, 5-[4-(1-Amino-1-methylethyl)phenyl]-4-(2-fluoro-ethoxy)-1H-indazole dihydrochloride]
23	C=CCOc1c(-c2ccc(C(C)(C)N)cc2)ccc2[nH]ncc12 [Compound 5-57, 4-Allyloxy-5-[4-(1-amino-1-methylethyl)phenyl]-1H-indazole dihydrochloride]
39	CCCOc1c(-c2ccc(C(C)(C)N)cn2)ccc2[nH]ncc12 [Compound 5-58, 5-[5-(1-Amino-1-methylethyl)pyridin-2-yl]-4-n-propoxy-1H-indazole trihydrochloride]
6.9	CC(C)(N)c1ccc(-c2ccc3[nH]ncc3c2OC(F)F)nc1 [Compound 5-59, 5-[5-(1-Amino-1-methylethyl)pyridin-2-yl]-4-difluoromethoxy-1H-indazole trihydrochloride]
35	CCOc1c(-c2ccc(C(N)(CC)CC)cn2)ccc2[nH]ncc12 [Compound 5-60, 5-[5-(1-Amino-1-ethylpropyl)pyridin-2-yl]-4-ethoxy-1H-indazole trihydrochloride]
45	CC(C)(N)c1ccc(-c2ccc3[nH]ncc3c2-c2ccncc2)cc1 [Compound 5-61, 5-[4-(1-Amino-1-methylethyl)phenyl]-4-(pyridin-4-yl)-1H-indazole trihydrochloride]
126	CC(C)(N)c1ccc(-c2ccc3[nH]ncc3c2-c2cccnc2)cc1 [Compound 5-62, 5-[4-(1-Amino-1-methylethyl)phenyl]-4-(pyridin-3-yl)-1H-indazole trihydrochloride]
241	CC(C)(N)c1ccc(-c2ccc3[nH]ncc3c2-c2ccccn2)cc1 [Compound 5-63, 5-[4-(1-Amino-1-methylethyl)phenyl]-4-(pyridin-2-yl)-1H-indazole trihydrochloride]
4.4	CC(C)(N)c1ccc(-c2ccc3[nH]ncc3c2-c2cn[nH]c2)cc1 [Compound 5-64, 5-[4-(1-Amino-1-methylethyl)phenyl]-4-(pyrazol-4-yl)-1H-indazole trihydrochloride]
56	CC(C)(N)c1ccc(-c2ccc3[nH]ncc3c2-c2cn[nH]c2)nc1 [Compound 5-65, 5-[5-(1-Amino-1-methylethyl)pyridin-2-yl]-4-(pyrazol-4-yl)-1H-indazole tetrahydrochloride]
2.6	CC(C)(N)c1ccc(-c2ccc3[nH]ncc3c2-c2cnco2)cc1 [Compound 5-66, 5-[4-(1-Amino-1-methylethyl)phenyl]-4-(oxazol-5-yl)-1H-indazole dihydrochloride]
11	CC(C)(N)c1ccc(-c2ccc3[nH]ncc3c2-c2cc[nH]n2)cc1 [Compound 5-67, 5-[4-(1-Amino-1-methylethyl)phenyl]-4-(pyrazol-3-yl)-1H-indazole trihydrochloride]
6.4	CC(C)(N)c1ccc(-c2ccc3[nH]ncc3c2-c2ccno2)cc1 [Compound 5-68, 5-[4-(1-Amino-1-methylethyl)phenyl]-4-(isoxazol-5-yl)-1H-indazole dihydrochloride]
55	CC(C)(N)c1ccc(-c2ccc3[nH]ncc3c2O)nc1 [Compound 5-69, 5-[5-(1-Amino-1-methylethyl)pyridin-2-yl]-4-hydroxy-1H-indazole trihydrochloride]
28	CC(C)(N)c1ccc(-c2ccc3[nH]ncc3c2OC2CC2)nc1 [Compound 5-70, 5-[5-(1-Amino-1-methylethyl)pyridin-2-yl]-4-cyclo-propyloxy-1H-indazole trihydrochloride]

SMILES	Ki [nM]
CCCCOc1c(-c2ccc(C(C)(C)N)cc2)ccc2[nH]ncc12 [Compound 5-55, 5-[4-(1-Amino-1-methylethyl)phenyl]-4-n-butoxy-1H-indazole dihydrochloride]	13
